Experimental data as given in patent US20230159468A1, “NOVEL FORMS OF PRACINOSTAT DIHYDROCHLORIDE” (Macfarlan Smith Limited, priority 2020, published 2023).
Values after ≈ are worked out from the molar mass of the structure shown. Values joined by “and” are separate entries in the source; they are usually repeats but may differ in a detail not shown here. Identical values can stand only once. Like-named read-outs stand apart in the source and are kept apart here.

Tests used:
Assay type in all cases: physicochemical
[1] = Dynamic vapor sorption (DVS) with XRPD analysis post-DVS; settings: for Solid form by XRPD analysis post-DVS: after DVS; for DVS weight change / Hygroscopicity by DVS: between 0-90% RH
From the text: Techniques for characterizing crystal and amorphous forms include but are not limited to differential scanning calorimetry (DSC), thermal gravimetric analysis (TGA), dynamic vapor sorption (DVS), X-ray powder diffractometry (XRPD), single crystal X-ray diffraction (SCXRD), proton nuclear magnetic resonance (^1H-NMR), Fourier transform infrared spectroscopy (FTIR Spectroscopy), and Optical Microscopy.

[2] = Solubility in solvent mixture of isopropyl alcohol and water; settings: organic solvent or mixture, isopropyl alcohol:water about 8:1 (v/v), about 58° C.
From the text: In one embodiment, the volume ratio of isopropyl alcohol to water in the solvent mixture is about 7-9:1; particularly about 8:1. In one embodiment, the solution of pracinostat diHCl is a saturated solution. […] Another embodiment optionally further comprises filtering the combination of pracinostat diHCl and solvent mixture to ensure no particles remain, i.e., to obtain the solution of pracinostat diHCl. In a particular embodiment, the weight to volume ratio of pracinostat diHCl to the solvent mixture is about 84-104 mg:1 mL; particularly about 94 mg:1 mL, wherein if the pracinostat diHCl is not fully dissolved in the solvent mixture, the combination of pracinostat diHCl and solvent mixture is filtered to obtain the solution of pracinostat diHCl. In one embodiment, the weight to volume ratio of Eudragit RS PO to the solution of pracinostat diHCl is about 3.75-6.25 mg:1 mL. In one embodiment, the weight ratio of Eudragit RS PO to pracinostat diHCl is about 1 mg: 14-16 mg. Another embodiment further comprises applying heating during the combining or using a solvent mixture that is heated. In another embodiment, the heating occurs at about 50-70° C. (particularly about 60° C.), or the solvent mixture is heated to about 50-70° C. (particularly about 60° C.). In one embodiment, the cooling is to about 0-10° C., particularly to about 5° C. […]

[3] = Solubility studies in pH buffer at 37° C. with HPLC analysis; settings: for Observation-1 hr / Observation-4 hr: ~6 mg in 5 mL; for solubility at 1 h / solubility at 4 h: pH buffer, 37 °C, thermodynamic from solid
Protocol: Solubility studies are conducted on the pracinostat diHCl co-crystal with fumaric acid according to the following method:
1. Weigh out ˜6 mg pracinostat diHCl co-crystal with fumaric acid in 5 mL pH buffer;
2. Stir samples at 37° C.;
3. After 1 hour, test and record pH, then remove a 2 mL sample for HPLC analysis;
4. Adjust pH of remaining solution using 0.2M NaOH or HCl, if necessary;
5. After 4 hours, test and record pH, then remove a 2 mL sample for HPLC analysis.
The solubility data are collected using an Agilent 1100 Series HPLC system and analyzed using Chemstation software. The method details are listed below.

[4] = Stability studies at 40° C./75% RH, evidenced by XRPD; settings: open vial covered with Kimwipes and sealed vial
[5] = starting pH 1.75 buffer, single experiments
[6] = starting pH 7.26 buffer, single experiments

## CCCCc1nc2cc(/C=C/C(=O)NO)ccc2n1CCN(CC)CC [pracinostat diHCl co-crystal with glycine]
[1]
  Solid form by XRPD analysis post-DVS: remains unchanged
  DVS weight change: ~8.0%
  Hygroscopicity by DVS: hygroscopic

## CCCCc1nc2cc(/C=C/C(=O)NO)ccc2n1CCN(CC)CC [pracinostat diHCl, (E)-3-(2-Butyl-1-(2-(diethylamino)ethyl)-1H-benzo[d]imidazol-5-yl)-N-hydroxyacrylamide]
[2]
  solubility: ~82600 µg/mL

## CCCCc1nc2cc(/C=C/C(=O)NO)ccc2n1CCN(CC)CC [pracinostat diHCl co-crystal with fumaric acid]
[3]; [5]
  Solubility (mg/mL) 1 hr: >0.75 mg/mL and >0.98 mg/mL
  Solubility (mg/mL) 4 hr: >0.81 mg/mL and >0.98 mg/mL
[3]; starting pH 1.75 buffer
  Observation-1 hr: Clear
  Observation-4 hr: Clear
[3]; [6]
  Solubility (mg/mL) 1 hr: 0.16 mg/mL and 0.17 mg/mL
  Solubility (mg/mL) 4 hr: 0.12 mg/mL and 0.09 mg/mL
[3]; starting pH 7.26 buffer
  Observation-1 hr: Cloudy
  Observation-4 hr: Cloudy
[4]
  Time stable (solid form, by XRPD): at least 9 months
[1]
  Solid form by XRPD analysis post-DVS: remains unchanged
  DVS weight change: ~1.7%
  Hygroscopicity by DVS: slightly hygroscopic

## CCCCc1nc2cc(/C=C/C(=O)NO)ccc2n1CCN(CC)CC [pracinostat diHCl co-crystal with L-arginine]
[1]
  Solid form by XRPD analysis post-DVS: not stable
  DVS weight change: ~12%
  Hygroscopicity by DVS: hygroscopic

## CCCCc1nc2cc(/C=C/C(=O)NO)ccc2n1CCN(CC)CC
[3]; pH 1.75, simulated gastric fluid, starting pH 1.75 buffer, single experiments, read-out: Solubility (mg/mL) 1 hr
  solubility at 1 h: > 1.07 mg/mL
[3]; pH 1.75, simulated gastric fluid, starting pH 1.75 buffer, single experiments, read-out: Solubility (mg/mL) 4 hr
  solubility at 4 h: > 1.08 mg/mL
[3]; pH 7.26, aqueous buffer, starting pH 7.26 buffer, average of Exp. 4-6, read-out: Avg. Solubility ± STD (mg/mL) 1 hr
  solubility at 1 h: 0.16 ± 0.01 mg/mL (≈ 446 µM)
[3]; pH 7.26, aqueous buffer, starting pH 7.26 buffer, single experiments, read-out: Solubility (mg/mL) 1 hr
  solubility at 1 h: 0.14 mg/mL (≈ 391 µM)
[3]; pH 7.26, aqueous buffer, starting pH 7.26 buffer, average of Exp. 4-6, read-out: Avg. Solubility ± STD (mg/mL) 4 hr
  solubility at 4 h: 0.1 ± 0.02 mg/mL (≈ 279 µM)
[3]; pH 7.26, aqueous buffer, starting pH 7.26 buffer, single experiments, read-out: Solubility (mg/mL) 4 hr
  solubility at 4 h: 0.08 mg/mL (≈ 223 µM)
